Assay results taken from PMC12777753 (Emerging Microbes & Infections, 2025).
≈ marks a conversion by molar mass, not a printed value. Structures can show the parent of a compound that is named as a salt. Where two headings read alike, the source gives them in different places. Marks after values point to notes of the source that are not given here.

Columns and labels:
[1] = system: A/Wisconsin/53/2009 (H1N1)pdm09; experiment: microbe, parasite or virus in culture; assay type: cell-based, influenza A(H1N1)pdm09 virus; conditions: Influenza A virus, H1N1, read-out: EC50 ± SD
[2] = system: clade 2.3.4.4b HPAI A(H5N1) viruses (B3.13 and D1.1); experiment: microbe, parasite or virus in culture; assay type: cell-based; conditions: for EC50: Influenza A virus, H5N1, read-out: 50% effective concentrations (EC50s), range over viruses
[3] = system: A/bald eagle/FL/2022 (H5N1); experiment: microbe, parasite or virus in culture; assay type: cell-based, influenza A(H5N1) virus; conditions: Influenza A virus
A/Nevada/10/2025 = experiment: microbe, parasite or virus in culture; assay type: cell-based, influenza A(H5N1) virus; conditions: Influenza A virus, read-out: PA inhibitor EC50 ± SD
A/California/147/2024 = experiment: microbe, parasite or virus in culture; assay type: cell-based, influenza A(H5N1) virus; conditions: Influenza A virus, read-out: PA inhibitor EC50 ± SD
A/California/153/2024 = experiment: microbe, parasite or virus in culture; assay type: cell-based, influenza A(H5N1) virus; conditions: Influenza A virus, read-out: PA inhibitor EC50 ± SD
[4] = system: Genotype B3.13 viruses (n = 10); experiment: microbe, parasite or virus in culture; assay type: cell-based, influenza A(H5N1) virus; conditions: Influenza A virus, read-out: PA inhibitor EC50, median
[5] = system: A/California/147/2024 (CA/147, wildtype); set-up: species or system BALB/c mice; conditions: mouse, in vivo; for Survival (%): po
A/California/155/2024 = experiment: microbe, parasite or virus in culture; assay type: cell-based, influenza A(H5N1) virus; conditions: Influenza A virus, read-out: PA inhibitor EC50 ± SD
[6] = system: Genotype D1.1 viruses (n = 7); experiment: microbe, parasite or virus in culture; assay type: cell-based, influenza A(H5N1) virus; conditions: Influenza A virus, read-out: PA inhibitor EC50, median
A/California/148/2024 = experiment: microbe, parasite or virus in culture; assay type: cell-based, influenza A(H5N1) virus; conditions: Influenza A virus, read-out: PA inhibitor EC50 ± SD
A/California/152/2024 = experiment: microbe, parasite or virus in culture; assay type: cell-based, influenza A(H5N1) virus; conditions: Influenza A virus, read-out: PA inhibitor EC50 ± SD
[7] = system: A/Illinois/08/2018 (H1N1)pdm09; experiment: microbe, parasite or virus in culture; assay type: cell-based, influenza A(H1N1)pdm09 virus; conditions: Influenza A virus, H1N1, read-out: PA inhibitor EC50 ± SD
[8] = system: A/Louisiana/50/2017 (H3N2); experiment: microbe, parasite or virus in culture; assay type: cell-based; conditions: Influenza A virus, H3N2, read-out: PA inhibitor EC50 ± SD
A/California/151/2024 = experiment: microbe, parasite or virus in culture; assay type: cell-based, influenza A(H5N1) virus; conditions: Influenza A virus, read-out: PA inhibitor EC50 ± SD
[9] = molecular target: NA of A/California/173/2024 (Influenza A virus, UniProt Q9Q0U7); assay type: biochemical, influenza A(H5N1) virus; conditions: read-out: NA inhibitor IC50 ± SD
NA of A/Iowa/24/2024 = NA of A/Iowa/24/2024 (Influenza A virus, UniProt Q9Q0U7); assay type: biochemical, influenza A(H5N1) virus; conditions: read-out: NA inhibitor IC50 ± SD
NA of A/Wyoming/01/2025 = NA of A/Wyoming/01/2025 (Influenza A virus, UniProt Q9Q0U7); assay type: biochemical, influenza A(H5N1) virus; conditions: read-out: NA inhibitor IC50 ± SD
NA of A/Nevada/10/2025 = NA of A/Nevada/10/2025 (Influenza A virus, UniProt Q9Q0U7); assay type: biochemical, influenza A(H5N1) virus; conditions: read-out: NA inhibitor IC50 ± SD
[10] = molecular target: NA of A/California/155/2024 (Influenza A virus, UniProt Q9Q0U7); assay type: biochemical, influenza A(H5N1) virus; conditions: read-out: NA inhibitor IC50 ± SD
[11] = molecular target: NA of A/California/148/2024 (Influenza A virus, UniProt Q9Q0U7); assay type: biochemical, influenza A(H5N1) virus; conditions: read-out: NA inhibitor IC50 ± SD
[12] = molecular target: recNA A/California/148/2024 (genotype B3.13) WT (Influenza A virus, UniProt Q9Q0U7); assay type: biochemical, influenza A(H5N1) virus
[13] = molecular target: NA of A/California/147/2024 (Influenza A virus, UniProt Q9Q0U7); assay type: biochemical, influenza A(H5N1) virus; conditions: read-out: NA inhibitor IC50 ± SD
[14] = molecular target: NA of A/California/151/2024 (Influenza A virus, UniProt Q9Q0U7); assay type: biochemical, influenza A(H5N1) virus; conditions: read-out: NA inhibitor IC50 ± SD
[15] = molecular target: NA of A/California/153/2024 (Influenza A virus, UniProt Q9Q0U7); assay type: biochemical, influenza A(H5N1) virus; conditions: read-out: NA inhibitor IC50 ± SD
[16] = molecular target: NA of A/Louisiana/50/2017 (H3N2) (Influenza A virus, UniProt A0A193ACB1); assay type: biochemical; conditions: read-out: NA inhibitor IC50 ± SD
[17] = molecular target: NA of A/Illinois/08/2018 (H1N1)pdm09 (Influenza A virus, UniProt A0A0X9QTS2); assay type: biochemical; conditions: read-out: NA inhibitor IC50 ± SD
[18] = molecular target: NA of A/bald eagle/FL/2022 (H5N1) (Influenza A virus, UniProt Q9Q0U7); assay type: biochemical; conditions: read-out: NA inhibitor IC50 ± SD
[19] = molecular target: NA of Genotype B3.13 viruses (n = 10) (Influenza A virus, UniProt Q9Q0U7); assay type: biochemical, influenza A(H5N1) virus; conditions: read-out: NA inhibitor IC50, median
[20] = molecular target: NA of A/California/152/2024 (Influenza A virus, UniProt Q9Q0U7); assay type: biochemical, influenza A(H5N1) virus; conditions: read-out: NA inhibitor IC50 ± SD
[21] = molecular target: NA of A/Illinois/45/2019 (H1N1)pdm09 (Influenza A virus, UniProt A0A0X9QTS2); assay type: biochemical; conditions: read-out: NA inhibitor IC50 ± SD
[22] = molecular target: recNA A/Washington/239/2024 (genotype D1.1) WT (Influenza A virus, UniProt Q8QPK2); assay type: biochemical, influenza A(H5N1) virus
[23] = molecular target: NA of Genotype D1.1 viruses (n = 7) (Influenza A virus, UniProt Q9Q0U7); assay type: biochemical, influenza A(H5N1) virus; conditions: read-out: NA inhibitor IC50, median

CC(N)C12CC3CC(CC(C3)C1)C2 (stereo not drawn) [Rimantadine, rimantadine]
EC50 [1]: 6.08 ± 0.9 ng/mL (≈ 0.0339 µM) | EC50 [2]: 3.14 to 6.48 ng/mL (≈ 0.0175 to 0.0361 µM) | EC50 ([3]; H5N1, read-out: EC50 ± SD): 5.74 ± 1.31 ng/mL

O=C1c2c(O)c(=O)ccn2N([C@@H]2c3ccccc3SCc3c2ccc(F)c3F)[C@@H]2COCCN12 [Baloxavir, baloxavir acid]
EC50 (A/Nevada/10/2025): 0.34 nM | EC50 (A/California/147/2024): 0.4 nM | EC50 (A/California/153/2024): 0.59 nM | EC50 [4]: 0.5 nM | infectious virus in any organs of treated mice [5]: not detected | loss of initial weight ([5]; 5 mg/kg): ≤ 6% | Survival (%) ([5]; 5 mg/kg): 87.5% | EC50 (A/California/155/2024): 0.41 nM | EC50 [6]: 0.34 nM | EC50 (A/California/148/2024): 0.26 nM | EC50s, in words [2]: sub-nanomolar | EC50 (A/California/152/2024): 0.45 nM | EC50 [7]: 0.96 ± 0.37 nM | EC50 [8]: 0.8 ± 0.28 nM | EC50 ([3]; H5N1, read-out: PA inhibitor EC50 ± SD): 0.39 ± 0.16 nM | EC50 (A/California/151/2024): 0.72 nM

CC(=O)N[C@H]1[C@H]([C@H](O)[C@H](O)CO)OC(C(=O)O)=C[C@@H]1N=C(N)N [Zanamivir, zanamivir]
IC50 [9]: 0.23 nM | IC50 (NA of A/Iowa/24/2024): 0.34 nM | IC50 (NA of A/Wyoming/01/2025): 0.46 nM | IC50 (NA of A/Nevada/10/2025): 0.36 nM | IC50 [10]: 0.16 nM

peramivir
IC50 [9]: 0.06 nM | IC50 [11]: 0.07 nM | IC50 (NA of A/Iowa/24/2024): 0.07 nM | IC50 (NA of A/Wyoming/01/2025): 0.07 nM | IC50 [12]: 0.08 nM | IC50 [13]: 0.07 nM | IC50 [14]: 0.07 nM | IC50 [15]: 0.06 nM | IC50 [16]: 0.07 ± 0.01 nM | IC50 [17]: 0.04 ± 0.01 nM | IC50 [18]: 0.08 ± 0.02 nM | IC50 [19]: 0.07 nM | IC50 [20]: 0.08 nM | IC50 [21]: 0.04 ± 0.01 nM | IC50 (NA of A/Nevada/10/2025): 0.07 nM | IC50 [10]: 0.08 nM | IC50 [22]: 0.06 nM | IC50 [23]: 0.07 nM

COC(=O)OCOc1c2n(ccc1=O)N([C@@H]1c3ccccc3SCc3c1ccc(F)c3F)[C@@H]1COCCN1C2=O [Baloxavir marboxil, baloxavir marboxil]
Mean TTD (day) ([5]; 5 mg/kg): 11^c day | Wt. Loss (%), mean maximum weight loss ([5]; 5 mg/kg): 5% | Wt. Loss (%), mean maximum weight loss ([5]; 15 mg/kg): 6% | Wt. Loss (%), mean maximum weight loss ([5]; 45 mg/kg): 4% | Survival (%) ([5]; 5 mg/kg): 7/8 (87.5) % | Survival (%) ([5]; 15 mg/kg): 8/8 (100) % | Survival (%) ([5]; 45 mg/kg): 8/8 (100) %

NC12CC3CC(CC(C3)C1)C2 [Amantadine, amantadine hydrochloride]
EC50 [1]: 25.9 ± 1.51 ng/mL | EC50 [2]: 9.25 to 21.5 ng/mL | EC50 ([3]; H5N1, read-out: EC50 ± SD): 20.5 ± 4.96 ng/mL

oseltamivir carboxylate
IC50 [17]: 0.34 ± 0.03 nM | IC50 [21]: 0.28 ± 0.04 nM
